# From US11311475B2, “Skin care compositions containing peptide compound and aphanothece sacrum exopolysaccharide extract” (The Procter & Gamble Company, priority 2019, dated 2022)
# Assay: Franz diffusion cell skin penetration assay
# Assay type: in vitro ADME, human
# Conditions: for pal-KT Skin Penetration: Surface Residual / pal-KT Skin Penetration: Dermis / pal-KT Skin Penetration: Epidermis / pal-KT Skin Penetration: Total Penetration / pal-KT Skin Penetration: Receptor: pal-KT 5 ppm; for pal-KT Skin Penetration: Surface Residual: 14C-spiked, 24 h after topical dose on human skin; for pal-KT Skin Penetration: Total Penetration: epidermis+dermis+receptor; for pal-KT Skin Penetration: Receptor: receptor solution (transdermal)
# Procedure: The method is described. […] (40 ppm) is assessed using the Franz diffusion cell assay (4, T. J. Franz, J. Invest. Dermatol. 64: 190-195, 1975; T. J. Franz, et al., Skin Pharmacol. Physiol. 22: 276-286, 2009). The peptides are formulated in a skin care silicone-in-water (SWF) formulation with or without 10 wt % SACRAN. The formulations are spiked with ^14C-pal-KT or ^3H-PKEK. Twenty-four hours after topically dosed on human skin, residual product is removed from the skin surface, the epidermal and dermal layers were separated, and receptor solutions (transdermal) are collected.
# [1] = SWF + 10 wt % SACRAN versus SWF, 24 h, human skin
# [2] = SWF formulation without SACRAN (control), 24 h
smiles,measurement,setting,value
"CCCCCCCCCCCCCCCC(=O)N[C@@H](CCCCN)C(=O)N[C@H](C(=O)O)[C@@H](C)O [pal-KT, palmitoyl-lysine-threonine]",amount recovered from the surface of the skin with SACRAN versus without (in words),[1],statistically significant lower amount
same,effect of addition of SACRAN on skin penetration (in words),[1],increased
same,pal-KT Skin Penetration: Surface Residual,SWF + 10 wt % SACRAN,173.2 ± 18.1 ng/cm^2
same,pal-KT Skin Penetration: Dermis,"SWF + 10 wt % SACRAN, 24 h",14.8 ± 1.65 ng/cm^2
same,pal-KT Skin Penetration: Epidermis,"SWF + 10 wt % SACRAN, 24 h",128.3 ± 17.1 ng/cm^2
same,pal-KT Skin Penetration: Total Penetration,"SWF + 10 wt % SACRAN, 24 h",143.3 ± 18.1 ng/cm^2
same,pal-KT Skin Penetration: Receptor,"SWF + 10 wt % SACRAN, 24 h",0.09 ± 0.07 ng/cm^2
same,increase in skin penetration by addition of SACRAN to SWF,"SWF + SACRAN versus SWF, single topical application",60%
same,pal-KT Skin Penetration: Surface Residual,SWF formulation without SACRAN (control),228.5 ± 10.2 ng/cm^2
same,pal-KT Skin Penetration: Dermis,[2],14.3 ± 1.4 ng/cm^2
same,pal-KT Skin Penetration: Epidermis,[2],72.5 ± 9.5 ng/cm^2
same,pal-KT Skin Penetration: Total Penetration,[2],88.0 ± 10.2 ng/cm^2
same,pal-KT Skin Penetration: Receptor,[2],0.14 ± 0.14 ng/cm^2
